Test results published in ChEMBL document CHEMBL3792365, “Dioxol and dihydrodioxin analogs of 2- and 3-phenylacetonitriles as potent anti-cancer agents with nanomolar activity against a variety of human cancer cells” (2016).

Experiments:
Assay type in all cases: functional
U-251 = test: Growth inhibition of human U251 cells at 10 uM after 48 hrs by sulforhodamine B assay; conditions: U-251, 48 h, values are per cent of control
[1] = Growth inhibition of human OVCAR4 cells at 10 uM after 48 hrs by sulforhodamine B assay; conditions: OVCAR-4, 48 h, values are per cent of control
SK-MEL-2 = test: Growth inhibition of human SK-MEL-2 cells at 10 uM after 48 hrs by sulforhodamine B assay; conditions: SK-MEL-2, 48 h, values are per cent of control
A498 = test: Growth inhibition of human A498 cells at 10 uM after 48 hrs by sulforhodamine B assay; conditions: A498, 48 h, values are per cent of control
[2] = Growth inhibition of human SF295 cells at 10 uM after 48 hrs by sulforhodamine B assay; conditions: SF-295, 48 h, values are per cent of control
[3] = Growth inhibition of human UO31 cells at 10 uM after 48 hrs by sulforhodamine B assay; conditions: UO-31, 48 h, values are per cent of control
HT-29 = test: Growth inhibition of human HT-29 cells at 10 uM after 48 hrs by sulforhodamine B assay; conditions: HT-29, 48 h, values are per cent of control
SK-MEL-28 = test: Growth inhibition of human SK-MEL-28 cells at 10 uM after 48 hrs by sulforhodamine B assay; conditions: SK-MEL-28, 48 h, values are per cent of control
[4] = Growth inhibition of human IGROV1 cells at 10 uM after 48 hrs by sulforhodamine B assay; conditions: IGROV-1, 48 h, values are per cent of control
[5] = Growth inhibition of human SF539 cells at 10 uM after 48 hrs by sulforhodamine B assay; conditions: SF-539, 48 h, values are per cent of control
[6] = Growth inhibition of human COLO205 cells at 10 uM after 48 hrs by sulforhodamine B assay; conditions: COLO 205, 48 h, values are per cent of control
[7] = Growth inhibition of human LOXIMVI cells at 10 uM after 48 hrs by sulforhodamine B assay; conditions: LOX IMVI, values are per cent of control
A549 = test: Growth inhibition of human A549/ATCC cells at 10 uM after 48 hrs by sulforhodamine B assay; conditions: A549, 48 h, values are per cent of control
SN12C = test: Growth inhibition of human SN12C cells at 10 uM after 48 hrs by sulforhodamine B assay; conditions: values are per cent of control
[8] = Growth inhibition of human SNB75 cells at 10 uM after 48 hrs by sulforhodamine B assay; conditions: SNB-75, 48 h, values are per cent of control
MDA-MB-231 = test: Growth inhibition of human MDA-MB-231 cells at 10 uM after 48 hrs by sulforhodamine B assay; conditions: MDA-MB-231, 48 h, values are per cent of control
[9] = Growth inhibition of human Hs 578T cells at 10 uM after 48 hrs by sulforhodamine B assay; conditions: values are per cent of control
[10] = Growth inhibition of human HCC2998 cells at 10 uM after 48 hrs by sulforhodamine B assay; conditions: HCC 2998, 48 h, values are per cent of control
[11] = Growth inhibition of human SF268 cells at 10 uM after 48 hrs by sulforhodamine B assay; conditions: SF-268, 48 h, values are per cent of control
[12] = Growth inhibition of human UACC62 cells at 10 uM after 48 hrs by sulforhodamine B assay; conditions: UACC-62, 48 h, values are per cent of control
M14 = test: Growth inhibition of human M14 cells at 10 uM after 48 hrs by sulforhodamine B assay; conditions: M14, 48 h, values are per cent of control
[13] = Growth inhibition of human TK10 cells at 10 uM after 48 hrs by sulforhodamine B assay; conditions: TK-10, 48 h, values are per cent of control
[14] = Growth inhibition of human SNB19 cells at 10 uM after 48 hrs by sulforhodamine B assay; conditions: SNB-19, 48 h, values are per cent of control
T47D = test: Growth inhibition of human T47D cells at 10 uM after 48 hrs by sulforhodamine B assay; conditions: values are per cent of control
NCI-H226 = test: Growth inhibition of human NCI-H226 cells at 10 uM after 48 hrs by sulforhodamine B assay; conditions: NCI-H226, 48 h, values are per cent of control
KM12 = test: Growth inhibition of human KM12 cells at 10 uM after 48 hrs by sulforhodamine B assay; conditions: KM12, 48 h, values are per cent of control
[15] = Growth inhibition of human HCT116 cells at 10 uM after 48 hrs by sulforhodamine B assay; conditions: HCT-116, 48 h, values are per cent of control
NCI-H460 = test: Growth inhibition of human NCI-H460 cells at 10 uM after 48 hrs by sulforhodamine B assay; conditions: NCI-H460, 48 h, values are per cent of control
NCI-H23 = test: Growth inhibition of human NCI-H23 cells at 10 uM after 48 hrs by sulforhodamine B assay; conditions: NCI-H23, 48 h, values are per cent of control
[16] = Growth inhibition of human Caki1 cells at 10 uM after 48 hrs by sulforhodamine B assay; conditions: CAKI-1, 48 h, values are per cent of control
[17] = Growth inhibition of human BT549 cells at 10 uM after 48 hrs by sulforhodamine B assay; conditions: BT-549, 48 h, values are per cent of control
[18] = Growth inhibition of human SW620 cells at 10 uM after 48 hrs by sulforhodamine B assay; conditions: SW-620, 48 h, values are per cent of control
[19] = Growth inhibition of human DU145 cells at 10 uM after 48 hrs by sulforhodamine B assay; conditions: DU-145, 48 h, values are per cent of control
MDA-MB-468 = test: Growth inhibition of human MDA-MB-468 cells at 10 uM after 48 hrs by sulforhodamine B assay; conditions: MDA-MB-468, 48 h, values are per cent of control
MDA-MB-435 = test: Growth inhibition of human MDA-MB-435 cells at 10 uM after 48 hrs by sulforhodamine B assay; conditions: MDA-MB-435, 48 h, values are per cent of control
NCI-H322M = test: Growth inhibition of human NCI-H322M cells at 10 uM after 48 hrs by sulforhodamine B assay; conditions: values are per cent of control
[20] = Growth inhibition of human OVCAR5 cells at 10 uM after 48 hrs by sulforhodamine B assay; conditions: OVCAR-5, 48 h, values are per cent of control
[21] = Growth inhibition of human HOP62 cells at 10 uM after 48 hrs by sulforhodamine B assay; conditions: HOP-62, 48 h, values are per cent of control
K562 = test: Growth inhibition of human K562 cells at 10 uM after 48 hrs by sulforhodamine B assay; conditions: K562, 48 h, values are per cent of control
NCI-H522 = test: Growth inhibition of human NCI-H522 cells at 10 uM after 48 hrs by sulforhodamine B assay; conditions: NCI-H522, 48 h, values are per cent of control

SMILES	growth, % of control at 10 µM (U-251) [%]	growth, % of control at 10 µM [1] [%]	growth, % of control at 10 µM (SK-MEL-2) [%]	growth, % of control at 10 µM (A498) [%]	growth, % of control at 10 µM [2] [%]	growth, % of control at 10 µM [3] [%]	growth, % of control at 10 µM (HT-29) [%]	growth, % of control at 10 µM (SK-MEL-28) [%]	growth, % of control at 10 µM [4] [%]	growth, % of control at 10 µM [5] [%]	growth, % of control at 10 µM [6] [%]	growth, % of control at 10 µM [7] [%]	growth, % of control at 10 µM (A549) [%]	growth, % of control at 10 µM (SN12C) [%]	growth, % of control at 10 µM [8] [%]	growth, % of control at 10 µM (MDA-MB-231) [%]	growth, % of control at 10 µM [9] [%]	growth, % of control at 10 µM [10] [%]	growth, % of control at 10 µM [11] [%]	growth, % of control at 10 µM [12] [%]	other results
N#C/C(=C\c1cc2ccccc2s1)c1ccc2c(c1)OCO2	18.4	60.2	29.2	-7.5	2.9	34.9	5	60.6	34.3	-10.1	-33.9	19.9	17.2	25.3	0.5	24.3	-5.4	6.4	23.8	24	growth, % of control at 10 µM (M14): 20.6%; growth, % of control at 10 µM [13]: 42.7%; growth, % of control at 10 µM [14]: 46.4%; growth, % of control at 10 µM (T47D): 70.4%; growth, % of control at 10 µM (NCI-H226): 28.7%; growth, % of control at 10 µM (KM12): 6%; growth, % of control at 10 µM [15]: 11.6%; growth, % of control at 10 µM (NCI-H460): 9.7%; growth, % of control at 10 µM (NCI-H23): 31.1%; growth, % of control at 10 µM [16]: 41.2%; growth, % of control at 10 µM [17]: 56.4%; growth, % of control at 10 µM [18]: 21%; growth, % of control at 10 µM [19]: 5.1%; growth, % of control at 10 µM (MDA-MB-468): 14.1%; growth, % of control at 10 µM (MDA-MB-435): -37.2%; growth, % of control at 10 µM (NCI-H322M): 40.9%; growth, % of control at 10 µM [20]: 50.4%; growth, % of control at 10 µM [21]: 58.5%; growth, % of control at 10 µM (K562): 18.8%; growth, % of control at 10 µM (NCI-H522): -20.5%
N#C/C(=C\c1cccnc1Cl)c1ccc2c(c1)OCO2	95.8	100	98.9	90.7	110	87.6	106	113	113	99.8	112	103	103	91.7	102	99.8	129	107	109	85.7	growth, % of control at 10 µM (M14): 94.9%; growth, % of control at 10 µM [13]: 106%; growth, % of control at 10 µM [14]: 101%; growth, % of control at 10 µM (T47D): 93.4%; growth, % of control at 10 µM (NCI-H226): 98.9%; growth, % of control at 10 µM (KM12): 109%; growth, % of control at 10 µM [15]: 94%; growth, % of control at 10 µM (NCI-H460): 102%; growth, % of control at 10 µM (NCI-H23): 97.2%; growth, % of control at 10 µM [16]: 103%; growth, % of control at 10 µM [17]: 88.5%; growth, % of control at 10 µM [18]: 94.8%; growth, % of control at 10 µM [19]: 115%; growth, % of control at 10 µM (MDA-MB-468): 93.7%; growth, % of control at 10 µM (MDA-MB-435): 97.1%; growth, % of control at 10 µM (NCI-H322M): 97%; growth, % of control at 10 µM [20]: 106%; growth, % of control at 10 µM [21]: 103%; growth, % of control at 10 µM (K562): 113%; growth, % of control at 10 µM (NCI-H522): 71.7%
